How the values were obtained:
(His)6-SOX11-DBD protein = target: T1, (His)6-SOX11-DBD protein (Homo sapiens, UniProt P35716); test: Surface Plasmon Resonance (SPR) assay; assay type: binding; conditions: immobilized recombinant (His)6-SOX11-DBD, 25° C., compounds 5-40 μM, mean of three experiments
T1 construct: Recombinant (His)6-SOX11-DBD protein was immobilized
T1 sequence (P35716 49-117 limits assumed): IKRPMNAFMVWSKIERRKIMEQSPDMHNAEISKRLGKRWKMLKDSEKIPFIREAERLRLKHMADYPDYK

Jeko-1 (SOX11+) = test: Cell viability assay (CellTiter-Blue resazurin reduction); assay type: cell-based; conditions: Homo sapiens, JeKo-1, 72 h, JeKo-1 cells
Outline: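 Cells were exposed to compound for 72 h, then resazurin reduction (CellTiter-Blue, 2 h) was read by fluorescence and converted to viable cell number via a standard curve. Viability was normalised to 0.2% DMSO-treated cells. IC50 came from a sigmoidal dose-response fit, three separate experiments.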

**Q.** With `Cc1ccccc1NS(=O)(=O)c1ccc(NC(=O)c2ccc3c(c2)NC(=O)C(C)S3)cc1` (stereo not drawn) as the molecule, how does the Kd ((His)6-SOX11-DBD protein) read?
**A.** The Kd was 14.1 µM.

**Q.** And the IC50 (Jeko-1 (SOX11+); 0-40 μM)?
**A.** The IC50 was 10 µM.

**Q.** And the viability at 20 µM (Jeko-1 (SOX11+); 20 μM compound, normalized to 0.2% DMSO)?
**A.** The viability at 20 µM was 9.87%.
